Consider 14 compounds from ChEMBL document CHEMBL4311955, “HIV-1 Protease Inhibitors Incorporating Stereochemically Defined P2' Ligands To Optimize Hydrogen Bonding in the Substrate Envelope” (J Med Chem, 2019).

As usually defined, the EC50 is the concentration giving half of the maximal effect. Low values mean a more potent agent, high ones a less potent agent. As usually defined, the Ki is a dissociation constant, usually derived from enzyme kinetics or from competition with a known ligand. Low values mean tighter binding, high ones weaker binding.

The subject of assay [1] is Human immunodeficiency virus 1. Description: Antiviral activity against multidrug-resistant HIV1 NL4-3 SLK19 infected in human TZM-bl cells preincubated for 18 hrs followed by viral infection and measured after 48 hrs by luciferase reporter gene assay. Particulars: Human immunodeficiency virus 1, NL4-3 SLK19, TZM-bl. Type of assay: functional, organism-based. For orientation: A reporter such as luciferase makes a cellular process visible.

A short description of assay [2]: Selectivity ratio of EC50 for antiviral activity against multidrug-resistant HIV1 NL4-3 SLK19 infected in human TZM-bl cells to EC50 for antiviral activity against wild-type HIV1 NL4-3 infected in human TZM-bl cells. The class given is functional.
Assay [3] relates to Human immunodeficiency virus 1. Description: Antiviral activity against multidrug-resistant HIV1 NL4-3 VSL20 infected in human TZM-bl cells preincubated for 18 hrs followed by viral infection and measured after 48 hrs by luciferase reporter gene assay. The class given is functional, organism-based. The following applies: Human immunodeficiency virus 1, NL4-3 VSL20, TZM-bl.
A short description of assay [4]: Selectivity ratio of EC50 for antiviral activity against multidrug-resistant HIV1 NL4-3 KY24 infected in human TZM-bl cells to EC50 for antiviral activity against wild-type HIV1 NL4-3 infected in human TZM-bl cells. Type of assay: functional.
In assay [5] the test system is Human immunodeficiency virus 1. Kind of assay: Antiviral activity against wild-type HIV1 NL4-3 infected in human TZM-bl cells preincubated for 18 hrs followed by viral infection and measured after 48 hrs by luciferase reporter gene assay. The class given is functional, organism-based. The following applies: Human immunodeficiency virus 1, NL4-3, TZM-bl.
For assay [6], the target named is Protease (Human immunodeficiency virus 1, UniProt Q9YQ12, A71V/I50V). Description: Inhibition of HIV1 NL4-3 protease I50V/A71V mutant expressed in Escherichia coli TAP-106 cells using EDANS/DABCYL-labelled 10-amino acid containing natural MA/CA cleavage site as substrate preincubated for 1 hr followed by substrate addition and measured for 60 mins by FRET assay.
Protease (Human immunodeficiency virus 1, UniProt Q9YQ12, A71V/I50V), sequence (Q9YQ12 entry or part of it A71V/I50V): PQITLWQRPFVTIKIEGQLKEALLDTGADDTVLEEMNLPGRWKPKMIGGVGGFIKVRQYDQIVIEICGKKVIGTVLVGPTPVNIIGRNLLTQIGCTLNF

Assay [7] in a line: Selectivity ratio of EC50 for antiviral activity against multidrug-resistant HIV1 NL4-3 VSL20 infected in human TZM-bl cells to EC50 for antiviral activity against wild-type HIV1 NL4-3 infected in human TZM-bl cells. The class given is functional.
Assay [8] has as its target Protease (Human immunodeficiency virus 1, UniProt Q9YQ12, I84V). Description: Inhibition of HIV1 NL4-3 protease I84V mutant expressed in Escherichia coli TAP-106 cells using EDANS/DABCYL-labelled 10-amino acid containing natural MA/CA cleavage site as substrate preincubated for 1 hr followed by substrate addition and measured for 60 mins by FRET assay.
In assay [9] the test system is Human immunodeficiency virus 1. Description: Antiviral activity against multidrug-resistant HIV1 NL4-3 KY24 infected in human TZM-bl cells preincubated for 18 hrs followed by viral infection and measured after 48 hrs by luciferase reporter gene assay. The class given is functional, organism-based. Particulars: Human immunodeficiency virus 1, NL4-3 KY24, TZM-bl.
Assay [10] concerns Human immunodeficiency virus 1. Description: Potency index, ratio of darunavir EC50 to test compound EC50 for antiviral activity against multidrug-resistant HIV1 NL4-3 KY24 infected in human TZM-bl cells. The class given is functional.

Protease (Human immunodeficiency virus 1, UniProt Q9YQ12, I84V), sequence (Q9YQ12 entry or part of it I84V): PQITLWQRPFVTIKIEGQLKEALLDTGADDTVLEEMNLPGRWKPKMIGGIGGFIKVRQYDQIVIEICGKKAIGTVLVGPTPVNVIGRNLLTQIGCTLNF

Regarding `CC[C@H](C)CN(C[C@@H](O)[C@H](Cc1ccccc1)NC(=O)O[C@H]1CO[C@H]2OCC[C@H]21)S(=O)(=O)c1ccc([C@H](C)O)cc1`, the EC50 is 49 nM in [1], 281 nM in assay [3], 4.6 nM in assay [5] and 490 nM in assay [9]. The results for the “Ratio EC50” value in [2], in assay [4] and in assay [7] were 11, 107 and 61, respectively. Moreover, the inhibition constant (Ki) on Protease [6] worked out at 0.093 nM; on Protease [8] it was 0.111 nM.

Compound `CC(C)CN(C[C@@H](O)[C@H](Cc1ccccc1)NC(=O)O[C@H]1CO[C@H]2OCC[C@H]21)S(=O)(=O)c1ccc([C@H](O)CO)cc1` returned an EC50 in assay [5] of 189 nM. Besides, the Ki on Protease [8] stood at 0.283 nM.

Take `CCC(CC)CN(C[C@@H](O)[C@H](Cc1ccccc1)NC(=O)O[C@H]1CO[C@H]2OCC[C@H]21)S(=O)(=O)c1ccc(CO)cc1`: the EC50 in assay [1] amounted to 36 nM; in [3] it was 426 nM; in [5] it was 4.2 nM; in assay [9], 495 nM. The “Ratio EC50” value in assay [2] is 9; in [4], 118; in [10] it was 2; in assay [7] it was 101. The values for the Ki at Protease [6] and on Protease [8] were 0.055 nM and 0.005 nM, respectively.

Regarding `CC[C@H](C)CN(C[C@@H](O)[C@H](Cc1ccccc1)NC(=O)O[C@H]1CO[C@H]2OCC[C@H]21)S(=O)(=O)c1ccc([C@@H](C)O)cc1`, the EC50 came out at 91 nM in assay [1], 291 nM in assay [3], 4.2 nM in assay [5] and 342 nM in assay [9]. Further, the “Ratio EC50” value in assay [2] came out at 22; in assay [4], 81; in assay [7], 69. For the same compound, the figures for the Ki on Protease [6] and at Protease [8] were 0.132 nM and 0.095 nM, respectively.

For `CC(C)CN(C[C@@H](O)[C@H](Cc1ccccc1)NC(=O)O[C@H]1CO[C@H]2OCC[C@H]21)S(=O)(=O)c1ccc([C@@H](O)CO)cc1`, in [5], the response was half-maximal at 176 nM (EC50). Also, the Ki on Protease [6] came to 0.09 nM; on Protease [8], 0.098 nM.

Turning to `CC(C)CN(C[C@@H](O)[C@H](Cc1ccccc1)NC(=O)O[C@H]1CO[C@H]2OCC[C@H]21)S(=O)(=O)c1ccc([C@H](C)O)cc1`, the EC50 came out at 31 nM in assay [1], 117 nM in assay [3], 4.7 nM in assay [5] and 352 nM in [9].

On to `CC(C)CN(C[C@@H](O)[C@H](Cc1ccccc1)NC(=O)O[C@H]1CO[C@H]2OCC[C@H]21)S(=O)(=O)c1ccc([C@@H](C)O)cc1`, for which the EC50 amounted to 100 nM in assay [1], 148 nM in assay [3], 7.5 nM in assay [5] and 360 nM in [9].

Turning to `CC[C@H](C)CN(C[C@@H](O)[C@H](Cc1ccccc1)NC(=O)O[C@H]1CO[C@H]2OCC[C@H]21)S(=O)(=O)c1ccc([C@@H](O)CO)cc1`, the EC50 in assay [5] was found to be 80 nM. Moreover, the Ki at Protease [8] came to 0.216 nM.

With `CCC(CC)CN(C[C@@H](O)[C@H](Cc1ccccc1)NC(=O)O[C@H]1CO[C@H]2OCC[C@H]21)S(=O)(=O)c1ccc([C@H](O)CO)cc1`, the EC50 turned out to be 151 nM in [1], 417 nM in assay [3], 41 nM in assay [5] and 1150 nM in assay [9]. Also, the results for the “Ratio EC50” value in [2], in assay [4] and in [7] were 4, 28 and 10, respectively. Further, the Ki at Protease [6] turned out to be 0.22 nM; at Protease [8], 0.134 nM.

As to `CC[C@H](C)CN(C[C@@H](O)[C@H](Cc1ccccc1)NC(=O)O[C@H]1CO[C@H]2OCC[C@H]21)S(=O)(=O)c1ccc(CO)cc1`, the EC50 in assay [1] came out at 52 nM; in [3], 310 nM; in [5], 5.7 nM; in assay [9], 1090 nM. The “Ratio EC50” value in [2] is 9; in assay [4] it was 191; in [7] it was 54. Also, the Ki was determined as 0.08 nM at Protease [6] and 0.01 nM at Protease [8].

In the case of `CC[C@H](C)CN(C[C@@H](O)[C@H](Cc1ccccc1)NC(=O)O[C@H]1CO[C@H]2OCC[C@H]21)S(=O)(=O)c1ccc([C@H](O)CO)cc1`, the EC50 in [5] was found to be 92 nM. This compound yielded a Ki at Protease [8] of 0.504 nM.

On to `CCC(CC)CN(C[C@@H](O)[C@H](Cc1ccccc1)NC(=O)O[C@H]1CO[C@H]2OCC[C@H]21)S(=O)(=O)c1ccc([C@@H](O)CO)cc1`, for which the EC50 in [1] is 116 nM; in assay [3], 100 nM; in assay [5] it was 40 nM; in assay [9] it was 507 nM. Further, the “Ratio EC50” value amounted to 3 in assay [2], 13 in assay [4] and 3 in assay [7]. The Ki at Protease [6] came to 0.074 nM; at Protease [8] it was 0.057 nM.

In the case of `CCC(CC)CN(C[C@@H](O)[C@H](Cc1ccccc1)NC(=O)O[C@H]1CO[C@H]2OCC[C@H]21)S(=O)(=O)c1ccc([C@H](C)O)cc1`, the EC50 in assay [1] stood at 26 nM; in assay [3], 112 nM; in assay [5] it was 4.4 nM; in assay [9], 196 nM.

In the case of `CCC(CC)CN(C[C@@H](O)[C@H](Cc1ccccc1)NC(=O)O[C@H]1CO[C@H]2OCC[C@H]21)S(=O)(=O)c1ccc([C@@H](C)O)cc1`, the EC50 in assay [1] is 32 nM; in [3] it was 420 nM; in [5], 5.1 nM; in [9], 345 nM.
